One block for each molecule: values may come before it.
Tests used:
full length ERRα = full length ERRα (Homo sapiens (Human), UniProt P11474); assay: Full Length ERRα Reporter Gene Assay; type: cell-based; settings: SK-BR-3 cells, ERRα-RE luciferase reporter, overnight incubation; read-out: mean pIC50 (converted)
Description: Full Length ERRα Reporter Gene Assay
A method was established to quantitatively screen the potency of compounds with inverse agonistic activity on the nuclear receptor ERRα of the human species. The assay allows intra-cellular screening of ERRα inverse agonists in SK-BR-3 cells using an over-expression construct coding full length ERRα and a reporter construct containing an ERRα Response Element (RE) and a luciferase gene for read out. The activity is expressed in log IC50 values and can be used to determine SAR of compound families or to de-select compounds.
In this assay, reporter cells are obtained by transient co-transfection of two constructs in SK-BR-3 cells using standard transfection techniques. The first construct contains a response element of the nuclear receptor ERRα (Plasmid pLP2175, Reporter construct ERRα-RE/luc2P, cloned variant of ERRα_v2_synthRE, Switchgear Genomics, Catalog Number S900089). This sequence drives the transcription of the luciferase reporter gene in response to binding of an ERRα protein encoded by the second construct (Plasmid pLP2124: full length ERRα expression construct using pcDNA3.1/Hygro(+) as background, Invitrogen Catalog Number V87020).
The day after transfection, cells were plated into 96 well plates, test compound was added and the plates were incubated overnight. Subsequently, the firefly luciferase activity was quantified using luciferase detection reagent and luminescence readout.
Detailed Assay Description
Transfection is performed on pre-seeded SK-BR-3 cells in a T175 flask. One transfected T175 flask is sufficient for seeding 3 to 4 MW96 plates the next day, depending on the confluency of the transfected cells.
Two different media are used in this protocol for cell treatment: 1) Culture medium, i.e. McCoy's 5a with phenol red (BioWhittaker Supplier Number 12-688F), 10% FBS and 1× Penstrep.; and, 2) Assay medium, i.e. McCoy's 5a Medium phenol red free (HyClone Product Code SH30270.01) with 2% Charcoal Stripped FBS and 1× Penstrep. Compound dilutions are prepared in assay medium.
Cells are seeded at least 2 days in advance to allow the cells to adhere well to flask before transfection. Cells should be 50-80% confluent at the day of transfection.
SKBR3 cells were transfected with the transcriptional reporter construct pLP2175 and the ERRα expression construct pLP2124 (as described above).
68 μL of Lipofectamine LTX transfection reagent (Invitrogen Catalog Number 15338-100) was added dropwise to 8.9 ml Opti-MEM I Reduced Serum Medium (Gibco Catalog Number 51985-026) and incubated at room temperature for 5 to 20 minutes. 8.9 ml of this reagent mixture was added to 22 μg pLP2175+22 μg pLP2124 (ratio 1:1 and total volume 10 ml), and incubated at room temperature for 25 minutes.
10 minutes before adding the transfection mix to SKBR3 cells in a T175 flask, the culture medium was refreshed with 20 mL culture medium. Subsequently, the 10 mL DNA-Opti-MEM-Lipofectamine mixture was gently added to the cells, followed by overnight (16-24 hours) incubation at 37° C. and 5% CO2.
To harvest SKBR3 cells from a T175 flask, first the medium was removed. Subsequently, cells were washed with Phosphate Buffered Saline (PBS) (Lonza), after which the PBS was removed. To dissociate the cells, 2 ml of TrypLE Express (Invitrogen) was added to the flask, followed by incubation at 37° C. for 5 minutes. The flask was tapped until cells were detached from the bottom. Cells were collected in 8 mL of culture medium (McCoy's 5α, 10% FBS, penstrep), to achieve a single cell suspension. After cell count, cells were spun down for 5 minutes at 300 g. Next cell pellets were re-suspended to 25000 cells/80 μl assay medium (McCoy's 5a phenol red free, 2% charcoal stripped FBS, penstrep).
For compound screening, the cells were harvested (as described above). 80 μL of cell suspension (25,000 cells) was plated per well into a white, flat bottom, tissue culture treated, 96 well screening plates (Greiner). […]

B16F10 melanoma = assay: B16F10 Melanoma Syngeneic Mouse Model; type: in vivo; settings: 30 mpk p.o., q.d., C57BL/6 mice; for Tumor Growth Inhibition (%): Day 13
Description: B16F10 Melanoma Syngeneic Mouse Model
Examples inhibitors 100, 191, 192, 194 and 196 were tested for their ability to inhibit tumor growth in a B16F10 melanoma syngeneic mouse model.
Cell line and tumor model: B16F10 melanoma cell line derived allograft model in C57BL/6 mice.
Mouse B16F10 melanoma cells were sourced from American Type Culture Collection (ATCC), USA. Cells were grown in DMEM (Invitrogen, Catalogue No. 31600-034) supplemented with 10% FBS (Invitrogen, Catalogue No. 10438-026), and 1% penicillin streptomycin (Thermo Fisher Scientific, Catalogue No. 15140-122). To establish allografts, the cells were harvested by trypsinization when they reach around 70 to 80% confluence and 0.1 million B16F10 cells were suspended in 50 μl of serum free medium and mixed at 1:1 ratio with matrigel before implanting subcutaneously into the dorsal right flank of mice using a 1 mL BD syringe attached to a 24-gauge needle.
B16F10 tumor grafts were measured after 5 days of cell inoculation once they became palpable. When the average tumor volume reached around 58 mm^3, animals were dosed after randomization into different treatment groups keeping tumor volume and number of animals in such a way so that the average tumor volume of each group remained same across the groups. Dosing was performed on a per kilogram weight basis, by mouth (per os, p.o.) once a day (quaque die, q.d).
Tumor dimensions—length (I) and breadth (b)—were measured by caliper on the day of animal randomization based on tumor volume (Day 1) and thrice weekly thereafter until study termination. Tumor volumes were calculated using the formula b^2*I*0.52 where l=length, b=breadth (Dusan Djokovic et al., BMC Cancer, 2010, 10:641). Tumor growth inhibition was calculated after normalizing the tumor volume on a given day to that on Day 1.
Test items administration was started when tumor volume reached an average of 58 mm^3.
Administration of test items was carried out until Day 14 and measurement of tumor volume was carried out until Day 13 for computing percent tumor growth inhibition (TGI).

[1] = target: ERRα ligand binding domain (ERRα-LBD) (Homo sapiens (Human), UniProt P11474); assay: ERRα AlphaScreen Assay; type: biochemical; settings: disruption of binding of ERRα-LBD protein to biotin-PGC1α-3 co-activator peptide
Method in brief: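 Disruption of co-activator binding read by AlphaScreen: compounds in triplicate, 1% DMSO, Tris pH 7.5 buffer, room temperature. Bacterially expressed 6His-SUMO-ERRα-LBD at 0.81 nM with beads for 1 h, then 15 nM biotinylated PGC1α peptide for 2 h. IC50 from four-parameter fits, averaged as pIC50.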

Chain of ERRα ligand binding domain (ERRα-LBD) (P11474 193-421): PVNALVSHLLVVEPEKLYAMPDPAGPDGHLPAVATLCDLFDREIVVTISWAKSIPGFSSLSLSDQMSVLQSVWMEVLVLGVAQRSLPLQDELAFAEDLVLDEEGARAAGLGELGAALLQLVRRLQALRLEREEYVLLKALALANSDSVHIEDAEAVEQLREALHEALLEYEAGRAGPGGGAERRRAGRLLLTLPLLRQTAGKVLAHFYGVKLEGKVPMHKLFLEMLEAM
Chain of full length ERRα (P11474 whole entry): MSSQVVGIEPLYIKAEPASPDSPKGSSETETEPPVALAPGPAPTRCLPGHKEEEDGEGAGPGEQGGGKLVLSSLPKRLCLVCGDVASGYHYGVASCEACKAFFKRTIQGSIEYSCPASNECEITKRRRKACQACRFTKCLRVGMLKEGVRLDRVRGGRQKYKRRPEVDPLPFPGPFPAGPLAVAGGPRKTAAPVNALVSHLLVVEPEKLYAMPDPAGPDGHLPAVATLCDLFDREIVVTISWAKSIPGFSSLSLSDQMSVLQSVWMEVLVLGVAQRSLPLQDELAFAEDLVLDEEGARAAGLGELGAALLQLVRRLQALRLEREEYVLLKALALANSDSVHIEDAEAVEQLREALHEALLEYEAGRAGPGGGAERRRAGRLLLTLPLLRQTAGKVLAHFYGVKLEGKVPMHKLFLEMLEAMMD

IC50 (full length ERRα): ≤ 0.316 µM
Structure (SMILES): COc1cc(C2CC(=O)Nc3n[nH]cc32)ccc1COc1ccc(C(F)F)cc1C(F)(F)F (single isomer, unassigned; (-)) [Example 196, (−)-4-(4-{[4-(difluoromethyl)-2-(trifluoromethyl)phenoxy]methyl}-3-methoxyphenyl)-2H,4H,5H,6H,7H-pyrazolo[3,4-b]pyridin-6-one]
Tumor Volume (mm^3) Day 13 (B16F10 melanoma): 755 ± 135 mm^3
Tumor Growth Inhibition (%) (B16F10 melanoma): 60%

mean pIC50 [1]: ≥ 8
IC50 (full length ERRα): ≤ 0.316 µM
Structure (SMILES): COc1cc(C2CC(=O)Nc3n[nH]cc32)ccc1COc1ccc(C)cc1C(F)(F)F (single isomer, unassigned; (-)) [Example 214, (−)-4-(3-methoxy-4-{[4-methyl-2-(trifluoromethyl)phenoxy]methyl}phenyl)-2H,4H,5H,6H,7H-pyrazolo[3,4-b]pyridin-6-one]

mean pIC50 [1]: ≥ 8
IC50 (full length ERRα): ≤ 0.316 µM
Structure (SMILES): COc1cc(C2CC(=O)Nc3n[nH]cc32)ccc1COc1ccc(Cl)cc1C(F)(F)F (single isomer, unassigned; (-)) [Example 194, (−)-4-(4-{[4-chloro-2-(trifluoromethyl)phenoxy]methyl}-3-methoxyphenyl)-2H,4H,5H,6H,7H-pyrazolo[3,4-b]pyridin-6-one]
Tumor Volume (mm^3) Day 13 (B16F10 melanoma): 870 ± 152 mm^3
Tumor Growth Inhibition (%) (B16F10 melanoma): 53%

mean pIC50 [1]: ≥ 8
IC50 (full length ERRα): ≤ 0.316 µM
Structure (SMILES): COc1cc(C2CC(=O)Nc3n[nH]cc32)ccc1COc1ccc(C#CCO)cc1C(F)(F)F (centres unmarked) [Example 119, 4-(4-{[4-(3-hydroxyprop-1-yn-1-yl)-2-(trifluoromethyl)phenoxy]methyl}-3-methoxyphenyl)-2H,4H,5H,6H,7H-pyrazolo[3,4-b]pyridin-6-one]

More lines, now with the values behind:

Structure (SMILES): COc1ccc(COc2ccc(C3CC(=O)Nc4n[nH]cc43)cc2OC)c(C(F)(F)F)c1 (centres unmarked) [Example 19, 4-(3-methoxy-4-{[4-methoxy-2-(trifluoromethyl)phenyl]methoxy}phenyl)-2H,4H,5H,6H,7H-pyrazolo[3,4-b]pyridin-6-one]
mean pIC50 [1]: ≥ 8
IC50 (full length ERRα): ≤ 0.316 µM

Structure (SMILES): COc1cc(C2CC(=O)Nc3n[nH]cc32)ccc1OCc1ccc(Br)cc1C(F)(F)F (centres unmarked) [Example 33, 4-(4-{[4-bromo-2-(trifluoromethyl)phenyl]methoxy}-3-methoxyphenyl)-2H,4H,5H,6H,7H-pyrazolo[3,4-b]pyridin-6-one]
mean pIC50 [1]: ≥ 8
IC50 (full length ERRα): ≤ 0.316 µM

Structure (SMILES): COc1cc(-c2cc(=O)[nH]c3n[nH]cc23)ccc1OCc1ccc(CCO)cc1C(F)(F)F [Example 176, 4-(4-{[4-(2-hydroxyethyl)-2-(trifluoromethyl)phenyl]methoxy}-3-methoxyphenyl)-2H, 6H, 7H-pyrazolo[3,4-b]pyridin-6-one]
mean pIC50 [1]: ≥ 8
IC50 (full length ERRα): ≤ 0.316 µM

Structure (SMILES): COc1ccc(COc2ccc(-c3cc(=O)[nH]c4n[nH]cc34)cc2OC)c(C(F)(F)F)c1 [Example 170, 4-(3-methoxy-4-{[4-methoxy-2-(trifluoromethyl)phenyl]methoxy}phenyl)-2H,6H, 7H-pyrazolo[3,4-b]pyridin-6-one]
mean pIC50 [1]: ≥ 8
IC50 (full length ERRα): ≤ 0.316 µM

Structure (SMILES): COc1cc(-c2cc(=O)[nH]c3n[nH]cc23)ccc1OCc1cccc(OC)c1C(F)(F)F [Example 177, 4-(3-methoxy-4-{[3-methoxy-2-(trifluoromethyl)phenyl]methoxy}phenyl)-2H, 6H, 7H-pyrazolo[3,4-b]pyridin-6-one]
mean pIC50 [1]: ≥ 8
IC50 (full length ERRα): ≤ 0.316 µM

Structure (SMILES): COc1cc(C2CC(=O)Nc3n[nH]cc32)ccc1OCc1ccc(CC#N)cc1C(F)(F)F (centres unmarked) [Example 147, 2-[4-(2-methoxy-4-{6-oxo-2H,4H,5H,6H, 7H-pyrazolo[3,4-b]pyridin-4-yl}phenoxymethyl)-3-(trifluoromethyl)phenyl]acetonitrile]
IC50 ([1]; read-out: mean pIC50 (converted)): 0.1 to 1 µM
IC50 (full length ERRα): ≤ 0.316 µM
